Results: patent US20240299359A1, “PHARMACEUTICAL COMPOSITION FOR ANIMALS CONTAINING 5-HYDROXY-METHYLIMIDAZOLIDINE-2,4-DIONE COMPOUND AS ACTIVE INGREDIENT” (KYONGBO PHARM. CO., LTD., priority 2021, published 2024)
Where two headings read alike, the source gives them in different places.

Experiment: Pharmacokinetic analysis in beagles after oral administration
Format: in vivo, beagle
Settings: for Cmax / AUC(0-inf) / AUC(0-t) / half-life / Tmax: beagle, dog, plasma, mean; for Cmax: po, read-out: Cmax (average highest plasma concentration); for Tmax: read-out: tmax (time of highest plasma concentration)
Procedure: For this purpose, 5-hydroxy-1-methylimidazolidine-2,4-dione was weighed, based on the fasting weight measured on the day of administration, using an electronic scale in accordance with the oral doses of 10, 50, 100, and 200 mg/kg for each experimental group, and was added to a 500 ml glass container, DW (distilled water) was added as an excipient, and the drug was dissolved therein through vortexing and stirring. Then, the beagles used in the subsequent experiments were acclimatized and environmentally adapted for about a week before the test, and then the compound was orally administered to each beagle at the doses listed in the table below. In addition, the beagles used in this experiment were bred and kept at the Endik Institute.
The compound was administered orally, blood was collected in a volume of 3 ml using a syringe from the jugular vein of the experimental beagle at each time (0 (before administration), 0.25, 0.5, 1, 1.5, 2, 4, 8, 12, and 24 hours), the collected blood was centrifuged at 4,000 rpm/10 minutes at 4° C. and dispensed into 500 μl of a set of two separate 1.5 ml tubes, and the remaining plasma was dispensed into another set and immediately stored in a deep freezer at −70° C. until analysis. The concentration of 5-hydroxy-1-methylimidazolidine-2,4-dione in the collected plasma was measured using the following method.
First, a standard sample solution for preparing a calibration curve was prepared. 1.2 mg of standard 5-hydroxy-1-methylimidazolidine-2,4-dione was dissolved in 0.12 ml of DMSO to prepare a stock solution having a final concentration of 10 mg/ml. Then, the stock solution was diluted to a final concentration of 500, 1,000, 2,000, 5,000, 10,000, 30,000, 100,000, 300,000, and 1,000,000 ng/ml with 70% acetonitrile as a solvent. Then, for an internal standard sample solution, 5.0 mg of 4-methylumbelliferone was dissolved in acetonitrile to prepare a final stock solution of 5 mg/ml, which was then diluted with acetonitrile to obtain a final concentration of 200 ng/ml.
To prepare a calibration curve using each solution prepared above, standard 5-hydroxy-1-methylimidazolidine-2,4-dione was dissolved in DMSO to prepare a 10 mg/ml standard stock solution and then the standard stock solution was frozen at −20° C., and the prepared standard stock solution was diluted with 70% acetonitrile to prepare a working solution. The working solution was diluted with blank plasma stored frozen below −20° C. (working standard solution 10%, blank plasma 90%) to prepare standard plasma to adjust the concentration of analyte in plasma to […]. 20 μl of each standard plasma was placed in a 1.5 ml micro-tube and then 180 μl of internal standard solution (200 ng/ml in ACN) was added thereto. After vortexing for 5 minutes, centrifugation was performed at 4° C. and 17,600×g for 5 minutes. 150 μl of the supernatant was transferred to a 300 μl screw vial, 5 μl of the supernatant was injected into the HPLCMS/MS system, and a calibration curve was plotted at the ratio of the peak area of the analyte to the obtained peak area of the internal standard.
Then, the plasma sample collected from the beagle was subjected to the following pretreatment for assay. 180 μl of the internal standard solution was added to 20 μl of the plasma sample to induce protein precipitation. Then, the mixed sample was suspended using a vortex mixer for 5 minutes, centrifuged at 17,600×g for 5 minutes, and 150 μl of the supernatant was transferred to an analysis container. Then, 5 μl of the supernatant was injected into a HPLC/MS/MS system and analysis was performed. The instruments used for analysis were an HPLC system (Agilent 1100 Series with on-line degasser, binary pump, thermostatted well-plate autosampler and column compartment) and an MS/MS system (SCIEX 4000 QTRAP System). […]

[1] = oral G3 (100 ng/kg [sic]; text 100 mg/kg)

**Q.** Which Cmax (10 mg/kg, oral 10 mg/kg (G1)) does the source give for CN1C(=O)NC(=O)C1O (centres unmarked) [KBP-001, 5-hydroxy-1-methylimidazolidine-2,4-dione] here?
**A.** 15 µg/mL

**Q.** And the Cmax (100 mg/kg, oral G3 (100 ng/kg [sic]; text 100 mg/kg))?
**A.** 102 µg/mL

**Q.** And the Cmax (200 mg/kg, oral 200 mg/kg (G4))?
**A.** 233 µg/mL

**Q.** And the AUC(0-inf) (oral 10 mg/kg (G1))?
**A.** 66.2 µg·h/mL

**Q.** And the AUC(0-t) (oral 10 mg/kg (G1))?
**A.** 65.4 µg·h/mL

**Q.** What about the half-life (oral 10 mg/kg (G1)) of the same compound?
**A.** 173 min

**Q.** And the Tmax (oral 10 mg/kg (G1))?
**A.** 36 min

**Q.** And the AUC(0-inf) (oral 50 mg/kg (G2))?
**A.** 289 µg·h/mL

**Q.** And the AUC(0-t) (oral 50 mg/kg (G2))?
**A.** 288 µg·h/mL

**Q.** What about the half-life (oral 50 mg/kg (G2)) of the same compound?
**A.** 168 min

**Q.** What about the Tmax (oral 50 mg/kg (G2)) of the same compound?
**A.** 21 min

**Q.** What about the AUC(0-inf) (oral 200 mg/kg (G4)) of the same compound?
**A.** 1120 µg·h/mL

**Q.** And the AUC(0-t) (oral 200 mg/kg (G4))?
**A.** 1110 µg·h/mL

**Q.** And the half-life (oral 200 mg/kg (G4))?
**A.** 174 min

**Q.** What about the Tmax (oral 200 mg/kg (G4)) of the same compound?
**A.** 27 min

**Q.** And the AUC(0-inf) [1]?
**A.** 468 µg·h/mL

**Q.** What about the AUC(0-t) [1] of the same compound?
**A.** 466 µg·h/mL

**Q.** What about the half-life [1] of the same compound?
**A.** 178 min

**Q.** And the Tmax [1]?
**A.** 48 min

**Q.** And the adverse reactions (single oral 10, 50, 100, 200 mg/kg, until end of PK test)?
**A.** no adverse reactions were observed
